Results: US9169232B2, “3-(5-methyl-2-oxo-l, 3-dioxol-4-yl) methyloxy-2-trans-[(4-chloro phenyl) cyclohexyl][1,4]naphthaquinone-atovaquone prodrug” (Alkem Laboratories Limited, priority 2011, dated 2015)

Tests used:
[1] = in-vitro and animal study of toxicity; type: in vivo
From the text: (§1) The Atovaquone prodrug compound of formula (I) of the present invention overcomes the problems associated with poor solubility and variable bioavailability of atovaquone.

[2] = solubility of the prodrug compared with atovaquone; type: physicochemical
From the text: as §1

[3] = plasma levels of atovaquone after administration of the prodrug; details: in vivo
From the text: as §1

For `Cc1oc(=O)oc1COC1=C(C2CCC(c3ccc(Cl)cc3)CC2)C(=O)c2ccccc2C1=O` (stereo not drawn) [compound of formula (I), 3-(5-methyl-2-oxo-1,3-dioxol-4-yl)methyloxy-2-trans-[(4-chlorophenyl)cyclohexyl][1,4]naphthaquinone], the toxicity [1] was “toxicity in the acceptable range”, the “solubility compared with atovaquone” value [2] was “better solubility than atovaquone” and the “plasma levels of atovaquone compared with levels after administration of atovaquone” value [3] was “non-variable plasma levels of atovaquone”.
